Measurements as given in publication PMC8482815, “Targeting Host Glycolysis as a Strategy for Antimalarial Development” (Frontiers in Cellular and Infection Microbiology, 2021).
Several values for one entry are separate records, joined by “and”; a condition that tells them apart may be missing. Equal values may be shown once.

Test system: human erythrocytes
Assay: Untargeted metabolomics and 13C-glucose tracing of enolase inhibitor treated erythrocytes
Format: cell-based
Settings: 1h
Experimental: Freshly collected erythrocytes were washed, resuspended to 10% hematocrit in buffer [25mM HEPES (pH 7.4), 120mM NaCl, 5.4mM KCl, 1.8mM CaCl2, and 1mM NaH2PO4], incubated for 1 hour at 37°C, then centrifuged at 2000xg for 5 minutes at 4°C, resuspended in fresh wash buffer to 30-40% hematocrit, and split into 210µL aliquots of packed erythrocytes. […] All samples were incubated at 37°C shaking at 500 RPM. Triplicate samples of supernatants and packed erythrocytes were collected at 0, 0.5, 1, and 6-hour intervals and snap-frozen in liquid N2.
RBC and media samples were extracted at 1:10 and 1:20 dilutions, respectively, in 5:3:2 MeOH : MeCN:H2O v/v/v, and supernatants analyzed on a Thermo Vanquish UHPLC coupled to a Thermo Q Exactive mass spectrometer, as extensively described ([Nemkov et al., 2015]; [Nemkov et al., 2017]). The extraction buffer was supplemented with 40uM 3-^13C lactate to allow absolute quantification of lactate isotopologues, including lactate generated via glycolysis ([1,2,3-^13C3] enriched) vs. the pentose phosphate pathway ([2,3-^13C2] enriched), as described ([Reisz et al., 2016]). Metabolite assignments, peak area integration and isotopologues distributions were determined using Maven (Princeton University) ([Nemkov et al., 2015]; [Nemkov et al., 2017]).
Data were auto-scaled and normalized to zero-hour time points. Metabolites were removed from the dataset if greater than 50% of the samples contained missing values or the relative standard deviation among replicates exceeded 25%. Additionally, data was filtered using the interquartile range to reduce near-constant values from the experiment by 5%.
A principal component analysis of preprocessed data was plotted with the 95% confidence interval minimum volume enclosing ellipsoid for each respective group (MetaboAnalyst, cluster, plotly). A two-way repeated measures analysis of variance (ANOVA) was performed with multiple comparisons corrected for using a false discovery rate p-value cutoff of 0.05. Metabolite-Pathway analysis was performed using the R package of MetaboAnalyst, as previously described ([Xia and Wishart, 2010]). Metabolite-Protein nodal analysis was performed using omicsnet.ca and as previously described ([Zhou and Xia, 2018]).

[1] = treated erythrocytes, one value per replicate sample, polarity +
[2] = treated erythrocytes, one value per replicate sample, polarity -
[3] = treated erythrocytes, replicate samples

CC(C)(C)C(=O)OCOP(=O)(OCOC(=O)C(C)(C)C)C1CCCN(O)C1=O (stereo not shown) [POMHEX]
AMP level (metabolomics signal) (replicate samples): 1.96E+06 and 2.60E+06 and 1.22E+06 | ATP level (metabolomics signal) (replicate samples): 1.32E+04 and 2.11E+04 and 3.43E+04 | Adenine level (metabolomics signal) (replicate samples): 1.75E+05 and 1.63E+05 and 1.61E+05 | Cytosine level (metabolomics signal) (replicate samples): 4.76E+05 and 3.43E+05 and 2.67E+05 | L-alanine level (metabolomics signal) (replicate samples): 1.12E+07 and 9.08E+06 and 1.05E+07 | L-arginine level (metabolomics signal) (replicate samples): 4.18E+06 and 1.19E+07 and 3.04E+06 | L-asparagine level (metabolomics signal) (replicate samples): 7.53E+06 and 8.13E+06 and 7.16E+06 | L-aspartate level (metabolomics signal) (replicate samples): 2.28E+07 and 2.29E+07 and 1.75E+07 | L-cysteine level (metabolomics signal) (replicate samples): 2.57E+05 and 1.28E+06 and 6.21E+05 | L-glutamate level (metabolomics signal) (replicate samples): 2.16E+07 and 2.10E+07 and 1.73E+07 | L-glutamine level (metabolomics signal) (replicate samples): 6.97E+07 and 8.81E+07 and 6.57E+07 | L-histidine level (metabolomics signal) (replicate samples): 1.22E+06 and 1.29E+06 and 1.07E+06 | L-isoleucine level (metabolomics signal) (replicate samples): 9.19E+06 and 1.31E+07 and 8.52E+06 | L-leucine level (metabolomics signal) (replicate samples): 1.97E+08 and 2.85E+08 and 1.36E+08 | L-lysine level (metabolomics signal) (replicate samples): 1.46E+06 and 1.53E+06 and 1.05E+06 | L-methionine level (metabolomics signal) (replicate samples): 1.81E+07 and 2.91E+07 and 1.59E+07 | L-phenylalanine level (metabolomics signal) (replicate samples): 1.22E+07 and 1.56E+07 and 8.20E+06 | L-proline level (metabolomics signal) (replicate samples): 4.14E+07 and 6.25E+07 and 4.63E+07 | L-serine level (metabolomics signal) (replicate samples): 6.19E+06 and 5.89E+06 and 5.91E+06 | L-threonine level (metabolomics signal) (replicate samples): 7.85E+06 and 8.68E+06 and 7.03E+06 | L-tryptophan level (metabolomics signal) (replicate samples): 4.00E+06 and 3.89E+06 and 2.67E+06 | L-tyrosine level (metabolomics signal) (replicate samples): 2.39E+07 and 3.62E+07 and 2.21E+07 | L-valine level (metabolomics signal) (replicate samples): 1.59E+08 and 1.34E+08 and 1.66E+08 | dCMP level (metabolomics signal) (replicate samples): 6.47E+03 and 1.42E+04 and 8.65E+03 | dTMP level (metabolomics signal) (replicate samples): 6.95E+05 and 1.44E+06 and 5.66E+05 | glycine level (metabolomics signal) (replicate samples): 2.53E+06 and 2.52E+06 and 2.98E+06 | N-Acyl-D-aspartate (C06380) metabolite signal [1]: 1.39E+05 and 1.05E+05 and 7.72E+04 | Poly-gamma-D-glutamate (C05723) metabolite signal [1]: 4.55E+07 and 6.01E+07 and 4.31E+07 | D-Ribitol 5-phosphate (C01068) metabolite signal [2]: 1.36E+04 and 3.79E+04 and 1.11E+04 | D-glucono-1,5-lactone (C00198) metabolite signal [2]: 3.37E+05 and 3.01E+05 and 3.48E+05 | L-Noradrenaline (C00547) metabolite signal [2]: 3.29E+04 and 4.04E+04 and 2.83E+04 | Oxalosuccinate (C05379) metabolite signal [2]: 9.85E+04 and 9.72E+04 and 1.00E+05 | Pyridoxamine (C00534) metabolite signal [2]: 1.26E+04 and 1.81E+04 and 8.56E+03 | Thioredoxin disulfide (C00343) metabolite signal [2]: 3.49E+04 and 1.17E+05 and 2.13E+04 | 1-4-beta-D-Xylan (metabolite signal) [3]: 1.76E+05 and 2.60E+05 and 1.54E+05 | 2-Hydroxyglutarate/Citramalate (C02630) metabolite signal [3]: 4.45E+04 and 4.76E+04 and 4.24E+04 | 5-6-Dihydrothymine (C00906) metabolite signal [3]: 2.57E+05 and 3.03E+05 and 1.85E+05 | 5-10-Methenyltetrahydrofolate (metabolite signal) [3]: 1.81E+05 and 1.74E+05 and 1.10E+05 | 5-Hydroxyisourate (C11821) metabolite signal [3]: 4.87E+06 and 2.62E+06 and 4.93E+06 | 5-L-Glutamyl-taurine (metabolite signal) [3]: 1.73E+05 and 9.38E+04 and 2.11E+05 | 5-Oxoproline (metabolite signal) [3]: 5.99E+05 and 6.10E+05 and 6.21E+05 | (S)(+)-Allantoin (C02350) metabolite signal [3]: 1.83E+04 and 1.70E+04 and 1.48E+04 | Allantoate (C00499) metabolite signal [3]: 1.28E+05 and 4.06E+05 and 1.02E+05 | Ascorbate (metabolite signal) [3]: 6.30E+04 and 1.08E+05 and 4.97E+04 | CMP-N-acetylneuraminate (metabolite signal) [3]: 6.05E+03 and 4.63E+03 and 2.62E+03 | Carnosine (metabolite signal) [3]: 2.09E+05 and 1.71E+05 and 1.90E+05 | Citrate (C00158) metabolite signal [3]: 1.89E+04 and 2.10E+04 and 1.46E+04 | Creatine (metabolite signal) [3]: 2.57E+08 and 2.12E+08 and 2.30E+08 | Creatinine (metabolite signal) [3]: 2.38E+06 and 2.51E+06 and 2.49E+06 | Cys-Gly (metabolite signal) [3]: 7.57E+05 and 1.20E+06 and 8.09E+05 | D-Glucosamine (metabolite signal) [3]: 6.03E+05 and 3.34E+05 and 1.05E+06 | D-Glucose (C00031) metabolite signal [3]: 4.53E+06 and 6.78E+06 and 3.73E+06 | D-Ribose (C00121) metabolite signal [3]: 1.22E+05 and 1.96E+05 and 1.18E+05 | Dehydroascorbate (metabolite signal) [3]: 4.03E+04 and 3.78E+04 and 2.56E+04 | Dihydrofolate (metabolite signal) [3]: 6.94E+05 and 1.83E+06 and 6.55E+05 | Dimethylglycine (metabolite signal) [3]: 1.12E+06 and 8.60E+05 and 1.04E+06 | Diphosphate (C00013) metabolite signal [3]: 1.40E+04 and 3.85E+04 and 1.73E+04 | Fumarate (C00122) metabolite signal [3]: 8.16E+04 and 8.08E+04 and 7.78E+04 | Glutathione (C00051) metabolite signal [3]: 5.06E+07 and 7.77E+07 and 5.74E+07 | Glutathione disulfide (metabolite signal) [3]: 7.45E+04 and 7.57E+04 and 5.41E+04 | Hypoxanthine (C00262) metabolite signal [3]: 6.66E+03 and 1.71E+04 and 1.69E+04 | IMP (C00130) metabolite signal [3]: 7.81E+04 and 9.15E+04 and 6.22E+04 | Inosine (C00294) metabolite signal [3]: 6.22E+04 and 5.44E+04 and 6.05E+04 | L-Citrulline (metabolite signal) [3]: 5.24E+06 and 4.00E+06 and 4.92E+06 | L-Homoserine (metabolite signal) [3]: 1.76E+05 and 2.52E+05 and 1.58E+05 | Lactate (C01432) metabolite signal [3]: 7.95E+06 and 9.12E+06 and 7.54E+06 | Malate (C00149) metabolite signal [3]: 6.76E+04 and 6.17E+04 and 6.25E+04 | Mannitol (C00392) metabolite signal [3]: 1.25E+05 and 1.54E+05 and 1.02E+05 | N-Acetylneuraminate (metabolite signal) [3]: 1.98E+04 and 1.32E+04 and 1.62E+04 | N-Glycoloyl-neuraminate (metabolite signal) [3]: 7.97E+04 and 1.42E+05 and 5.68E+04 | NAD+ (C00003) metabolite signal [3]: 1.57E+04 and 4.46E+04 and 2.15E+04 | Nicotinamide (C00153) metabolite signal [3]: 4.80E+07 and 5.08E+07 and 4.18E+07 | Ornithine (metabolite signal) [3]: 1.57E+06 and 1.30E+06 and 1.16E+06 | Oxaloacetate (C00036) metabolite signal [3]: 3.29E+04 and 5.49E+04 and 3.03E+04 | Phosphoserine (metabolite signal) [3]: 0.00E+00 (2×) and 1.77E+04 | Putrescine (metabolite signal) [3]: 4.04E+04 and 3.04E+04 and 2.63E+04 | Pyridoxal (C00250) metabolite signal [3]: 5.25E+04 and 8.23E+04 and 7.59E+04 | Pyruvate (C00022) metabolite signal [3]: 5.39E+05 and 7.10E+05 and 4.33E+05 | S-Glutathionyl-L-cysteine (metabolite signal) [3]: 5.57E+04 and 6.02E+04 and 1.82E+04 | Sedoheptulose 1-phosphate (C06222) metabolite signal [3]: 2.81E+03 and 3.84E+03 and 2.38E+03 | Spermidine (metabolite signal) [3]: 7.32E+06 and 6.78E+06 and 6.25E+06 | Spermine (metabolite signal) [3]: 7.58E+06 and 7.10E+06 and 6.92E+06 | Succinate (C00042) metabolite signal [3]: 6.13E+04 and 9.94E+04 and 5.79E+04 | Thymidine (C00214) metabolite signal [3]: 1.12E+04 and 1.26E+04 and 8.73E+03 | UDP (C00015) metabolite signal [3]: 5.07E+04 and 1.42E+05 and 2.88E+04 | UDP-N-acetyl-D-glucosamine (metabolite signal) [3]: 2.55E+03 and 3.51E+03 and 2.64E+03 | UDP-glucose (C00029) metabolite signal [3]: 5.62E+03 and 1.08E+04 and 6.04E+03 | Urate (C00366) metabolite signal [3]: 2.31E+04 and 2.80E+04 and 2.12E+04 | Xanthine (C00385) metabolite signal [3]: 1.88E+05 and 1.43E+05 and 1.48E+05 | alpha-D-Glucosamine 1-phosphate (metabolite signal) [3]: 8.86E+05 and 4.48E+05 and 1.21E+06 | alpha-D-Ribose 1-phosphate (C00620) metabolite signal [3]: 2.29E+04 and 4.78E+04 and 2.91E+04 | gamma-Glutamyl-gamma-aminobutyrate (metabolite signal) [3]: 9.00E+04 and 5.89E+04 and 7.26E+04 | gamma-L-Glutamyl-D-alanine (metabolite signal) [3]: 1.81E+04 and 1.74E+04 and 1.70E+04 | gamma-L-Glutamyl-L-cysteine (metabolite signal) [3]: 1.43E+04 and 3.68E+04 and 6.67E+03
